The supplement of paper PMC10307832

What was measured:
Assay in all cases: relative viability (nuclei count vs DMSO), 5 days (fraction); higher = more cells survive
Elesclomol + Trametinib = compound: CN(NC(=O)CC(=O)NN(C)C(=S)c1ccccc1)C(=S)c1ccccc1 [Elesclomol] + CC(=O)Nc1cccc(-n2c(=O)n(C3CC3)c(=O)c3c(Nc4ccc(I)cc4F)n(C)c(=O)c(C)c32)c1 [Trametinib] (partner 0.02 µM)
Procedure, shortened: (§1)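 Relative viability divides the nuclei count in treated wells by that in vehicle wells. Lung cancer cell lines were seeded in 1536-well plates, dosed by pin tool the next day, and fixed and stained after 5 days in one step with final 0.05% Triton X-100, 1% formaldehyde and 1 ug/ml Hoechst. Dosing was a single drug or a fixed anchor-drug dose plus five library-drug doses (not always all listed) in √10 steps, and values are medians of duplicate plates imaged at 4×.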

Elesclomol + Navitoclax = compound: CN(NC(=O)CC(=O)NN(C)C(=S)c1ccccc1)C(=S)c1ccccc1 [Elesclomol] + CC1(C)CCC(c2ccc(Cl)cc2)=C(CN2CCN(c3ccc(C(=O)NS(=O)(=O)c4ccc(N[C@H](CCN5CCOCC5)CSc5ccccc5)c(S(=O)(=O)C(F)(F)F)c4)cc3)CC2)C1 [Navitoclax] (partner 0.5 µM)
Procedure, shortened: as §1

Elesclomol + Luminespib = compound: CN(NC(=O)CC(=O)NN(C)C(=S)c1ccccc1)C(=S)c1ccccc1 [Elesclomol] + CCNC(=O)c1noc(-c2cc(C(C)C)c(O)cc2O)c1-c1ccc(CN2CCOCC2)cc1 [Luminespib] (partner 0.01 µM)
Procedure, shortened: as §1

Elesclomol + AZD7762 = compound: CN(NC(=O)CC(=O)NN(C)C(=S)c1ccccc1)C(=S)c1ccccc1 [Elesclomol] + NC(=O)Nc1cc(-c2cccc(F)c2)sc1C(=O)N[C@H]1CCCNC1 [AZD7762] (partner 0.2 µM)
Procedure, shortened: as §1

Elesclomol + Decitabine = compound: CN(NC(=O)CC(=O)NN(C)C(=S)c1ccccc1)C(=S)c1ccccc1 [Elesclomol] + Nc1ncn([C@H]2C[C@H](O)[C@@H](CO)O2)c(=O)n1 [Decitabine] (partner 2 µM)
Procedure, shortened: as §1

| Cell Line | relative viability (Elesclomol + Trametinib; first compound 0.003162 µM) | relative viability (Elesclomol + Trametinib; first compound 0.01 µM) | relative viability (Elesclomol + Trametinib; first compound 0.03162 µM) | relative viability (Elesclomol + Trametinib; first compound 0.1 µM) | relative viability (Elesclomol + Navitoclax; first compound 0.003162 µM) | relative viability (Elesclomol + Navitoclax; first compound 0.01 µM) | relative viability (Elesclomol + Navitoclax; first compound 0.03162 µM) | relative viability (Elesclomol + Navitoclax; first compound 0.1 µM) | relative viability (Elesclomol + Luminespib; first compound 0.003162 µM) | relative viability (Elesclomol + Luminespib; first compound 0.01 µM) | relative viability (Elesclomol + Luminespib; first compound 0.03162 µM) | relative viability (Elesclomol + Luminespib; first compound 0.1 µM) | relative viability (Elesclomol + AZD7762; first compound 0.003162 µM) | relative viability (Elesclomol + AZD7762; first compound 0.01 µM) | relative viability (Elesclomol + AZD7762; first compound 0.03162 µM) | relative viability (Elesclomol + AZD7762; first compound 0.1 µM) | relative viability (Elesclomol + Decitabine; first compound 0.003162 µM) | relative viability (Elesclomol + Decitabine; first compound 0.01 µM) | relative viability (Elesclomol + Decitabine; first compound 0.03162 µM) | relative viability (Elesclomol + Decitabine; first compound 0.1 µM) |
| --- | --- | --- | --- | --- | --- | --- | --- | --- | --- | --- | --- | --- | --- | --- | --- | --- | --- | --- | --- | --- |
| NCI-H1437 | 0.504 | 0.424 | 0.339 | 0.275 | 1.02 | 0.67 | 0.474 | 0.455 | 0.967 | 0.689 | 0.445 | 0.436 | 0.938 | 0.644 | 0.547 | 0.594 | 0.602 | 0.493 | 0.438 | 0.337 |
| NCI-H1651 | 0.854 | 0.842 | 0.858 | 0.538 | 0.971 | 0.525 | 0.137 | 0.0728 | 0.944 | 0.361 | 0.157 | 0.0878 | 0.462 | 0.469 | 0.345 | 0.334 | 0.596 | 0.608 | 0.577 | 0.4 |
| NCI-H1666 | 0.801 | 0.675 | 0.689 | 0.662 | 0.825 | 0.299 | 0.227 | 0.15 | 0.962 | 0.788 | 0.521 | 0.484 | 0.784 | 0.807 | 0.492 | 0.416 | 0.739 | 0.717 | 0.522 | 0.47 |
| NCI-H1734 | 0.674 | 0.511 | 0.151 | 0.0873 | 0.852 | 0.841 | 0.636 | 0.0859 | 0.189 | 0.14 | 0.122 | 0.108 | 0.518 | 0.45 | 0.145 | 0.0601 | 0.483 | 0.445 | 0.188 | 0.101 |
| NCI-H1755 | 0.772 | 0.77 | 0.774 | 0.56 | 0.968 | 0.847 | 0.82 | 0.158 | 0.418 | 0.257 | 0.452 | 0.284 | 0.457 | 0.349 | 0.38 | 0.406 | 0.704 | 0.808 | 0.689 | 0.598 |
| NCI-H1792 | 0.367 | – | 0.366 | 0.267 | 0.608 | 0.566 | 0.504 | 0.628 | 0.385 | 0.354 | 0.431 | 0.329 | 0.666 | – | 0.608 | 0.257 | 0.53 | – | 0.523 | 0.443 |
| NCI-H1793 | 0.339 | 0.414 | 0.318 | 0.111 | 0.349 | 0.349 | 0.382 | 0.135 | 0.13 | 0.148 | 0.158 | 0.133 | 0.442 | 0.448 | 0.464 | 0.104 | 0.44 | 0.387 | 0.454 | 0.126 |
| NCI-H1915 | 0.301 | 0.242 | 0.305 | 0.118 | 0.784 | – | 0.792 | 0.799 | 0.771 | – | 0.768 | 0.331 | 0.716 | 0.663 | 0.659 | 0.368 | 0.254 | 0.265 | 0.277 | 0.205 |
